Publication PMC5858870 (Environmental pollution (Barking, Essex : 1987), 2018)
Read-outs that look alike come from different tables or passages of the source.

Assays:
[1] = for Whole-body conc D 50 High / Whole-body conc D 50 Med: day 50 (after depuration), wet weight, < = reporting limit; for Whole-body conc D 50 Med: medium dose
[2] = system: fish; conditions: ref Kim et al. (2007); cited from earlier work
[3] = system: male fathead minnow; conditions: exposed to 40,000 ng/L (40 ng/mL); ref Niemuth and Klaper, 2015; cited from earlier work
[4] = Apparent half-life during depuration phase; conditions: whole-body, apparent first order
[5] = system: mitochondrial respiration; conditions: ref Schnellmann et al., 1990; Shim et al., 2016; cited from earlier work
[6] = in vivo; cited from earlier work
[7] = system: carp; conditions: carp (Catla catla) exposed; ref Muthuviveganandavel et al., 2013; cited from earlier work
[8] = system: rainbow trout; conditions: relatively low concentrations in the range of ng/mL; ref Ashfield et al., 1998; cited from earlier work
[9] = day 32, high dose, nominal ratio 10×
[10] = day 32, low dose, nominal ratio 0.3×
[11] = day 32, medium dose, nominal ratio 1×
[12] = Chinook salmon (Oncorhynchus tshawytscha), juvenile, in vivo, 32 d
[13] = Chinook salmon (Oncorhynchus tshawytscha), juvenile, in vivo, 50 d

Molecule	WB conc. factor (lab / field) D 32 High [1, 9]	WB conc. factor (lab / field) D 32 Low [1, 10]	WB conc. factor (lab / field) D 32 Med [1, 11]	WB conc. factor (lab / field) D 50 Med ([1]; day 50, medium dose)	further results
CN(C)CCC=C1c2ccccc2CCc2ccccc21 [Amitriptyline, reference compound]	1.41	0.19	–	–	–
CCOC(=O)C1=C(COCCN)NC(C)=C(C(=O)OC)C1c1ccccc1Cl (centres unmarked) [Amlodipine, reference compound]	19.5	1.15	1.12	–	–
CC[C@H]1OC(=O)[C@H](C)[C@@H](O[C@H]2C[C@@](C)(OC)[C@@H](O)[C@H](C)O2)[C@H](C)[C@@H](O[C@@H]2O[C@H](C)C[C@H](N(C)C)[C@H]2O)[C@](C)(O)C[C@@H](C)CN(C)[C@H](C)[C@@H](O)[C@]1(C)O [Azithromycin, reference compound]	17.1	1.67	1.03	1.42	–
CNCCN1C(=O)[C@H](OC(C)=O)[C@H](c2ccc(OC)cc2)Sc2ccccc21 [Desmethyl-diltiazem]	108	4.67	9.00	9.6	Whole-body conc D 50 High [1]: 119 ng/g; Whole-body conc D 50 Med [1]: 14.4 ng/g
COc1ccc([C@@H]2Sc3ccccc3N(CCN(C)C)C(=O)[C@@H]2OC(C)=O)cc1 [Diltiazem, reference compound]	63.8	10.7	6.56	2.37	96h LC50 [2]: 15 µg/mL
CN(C)CCOC(c1ccccc1)c1ccccc1 [Diphen hydramine, reference compound]	5.37	0.67	0.43	–	–
CNCCC(Oc1ccc(C(F)(F)F)cc1)c1ccccc1 (centres unmarked) [Fluoxetine, reference compound]	4.00	0.29	0.21	0.19	–
Cc1ccc(C)c(OCCCC(C)(C)C(=O)O)c1 [Gemfibrozil, reference compound]	2.57	–	–	–	–
CN(C)C(=N)N=C(N)N [Metformin, reference compound]	1.42	0.16	–	–	Growth in male fathead minnow [3]: reduced growth
Clc1ccc(COC(Cn2ccnc2)c2ccc(Cl)cc2Cl)c(Cl)c1 (centres unmarked) [Miconazole, reference compound]	7.39	0.64	–	–	–
NCCC(Oc1ccc(C(F)(F)F)cc1)c1ccccc1 (centres unmarked) [Norfluoxetine]	5.59	0.31	0.38	0.52	–
O=C(O)C(F)(F)C(F)(F)C(F)(F)C(F)(F)C(F)(F)C(F)(F)C(F)(F)C(F)(F)C(F)(F)F [PFDA]	39.9	1.68	2.76	2.63	Whole-body conc D 50 High [1]: 14.4 ng/g; Whole-body conc D 50 Med [1]: 2.05 ng/g; Half life High [4]: 16.2 days; Half life Med ([4]; medium dose): 262 days
O=C(O)C(F)(F)C(F)(F)C(F)(F)C(F)(F)C(F)(F)F [PFHxA]	–	–	–	–	Whole-body conc D 50 High [1]: 0.82 ng/g; Whole-body conc D 50 Med [1]: 0.49 ng/g
NS(=O)(=O)C(F)(F)C(F)(F)C(F)(F)C(F)(F)C(F)(F)C(F)(F)C(F)(F)C(F)(F)F [PFOSA]	–	–	–	–	WB conc. factor (lab / field) D 32 High [1, 12]: 85.9; WB conc. factor (lab / field) D 32 Low [1, 12]: 2.74; WB conc. factor (lab / field) D 32 Med [1, 12]: 4.15; WB conc. factor (lab / field) D 50 High [1, 13]: 55.9; WB conc. factor (lab / field) D 50 Med [1, 13]: 7.0; Uncoupling of mitochondrial respiration [5]: known uncouplers of mitochondrial respiration; Max WB conc field Scul [6]: 2.2 ng/g
O=S(=O)(O)C(F)(F)C(F)(F)C(F)(F)C(F)(F)C(F)(F)C(F)(F)C(F)(F)C(F)(F)F [PFOS]	4.01	0.17	0.22	0.34	Whole-body conc D 50 High [1]: 123 ng/g; Whole-body conc D 50 Med [1]: 11.6 ng/g; Half life High [4]: 134 days
CN[C@H]1CC[C@@H](c2ccc(Cl)c(Cl)c2)c2ccccc21 [Sertraline, reference compound]	0.53	–	–	–	–
O=C(Nc1ccc(Cl)cc1)Nc1ccc(Cl)c(Cl)c1 [Triclocarban]	1.34	–	–	–	–
Oc1cc(Cl)ccc1Oc1ccc(Cl)cc1Cl [Triclosan]	–	–	–	–	Uncoupling of mitochondrial respiration [5]: known uncouplers of mitochondrial respiration
CC1(C)C(C=C(Cl)Cl)C1C(=O)OC(C#N)c1cccc(Oc2ccccc2)c1 (centres unmarked) [cypermethrin]	–	–	–	–	Plasma enzymes ALT, AMYL, and acid phosphatase [7]: large reductions
nonylphenol	–	–	–	–	Growth in rainbow trout [8]: inhibited growth
nonylphenol diethoxylate	–	–	–	–	Growth in rainbow trout [8]: inhibited growth
octylphenol	–	–	–	–	Growth in rainbow trout [8]: inhibited growth
